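Step 1: Grow cells in 96-well plates. Step 2: Expose to compound for 48 hours at 5 concentrations. Step 3: Interpolate endpoints linearly; if unreached, use highest concentration. GI50 marks 50% less growth.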 Activity calls are given as the source filed them. Cut-off read from the data, not from the text of the source: active = GI50 up to about 1.1 µM and inactive = higher.
Experiments:
Test in all cases: DTP human tumour cell line panel, 48 h
[1] = system: A549
[2] = system: ACHN
[3] = system: CCRF-CEM
[4] = system: HOP-62
[5] = system: MDA-MB-231
[6] = system: Malme-3M
[7] = system: NCI-H226
[8] = system: NCI-H460
[9] = system: NCI-H522
[10] = system: NCI/ADR-RES
[11] = system: OVCAR-3
[12] = system: OVCAR-5
[13] = system: OVCAR-8
[14] = system: SK-MEL-28
[15] = system: SNB-19
[16] = system: SR
[17] = system: TK-10
[18] = system: U-251
[19] = system: A498
[20] = system: DU-145

Measured: GI50

Cc1cc2c(nn1)CCc1c-2no[n+]1[O-]
inactive: [1] > 100 µM | [2] > 100 µM | [3] > 100 µM | [4] > 100 µM | [5] > 100 µM | [6] > 100 µM | [7] > 100 µM | [8] > 100 µM | [9] > 100 µM | [10] > 100 µM | [11] > 100 µM | [12] > 100 µM | [13] > 100 µM | [14] > 100 µM | [15] > 100 µM | [16] > 100 µM | [17] > 100 µM | [18] > 100 µM

COc1cccc2c1CCc1c(-c3ccc(F)cc3)cc(-c3ccc4ccccc4n3)nc1-2
inactive: [19] > 100 µM | [1] > 100 µM | [2] > 100 µM | [3] > 100 µM | [4] > 100 µM | [5] > 100 µM | [6] > 100 µM | [7] > 100 µM | [8] > 100 µM | [9] > 100 µM | [10] > 100 µM | [11] > 100 µM | [12] > 100 µM | [13] > 100 µM | [15] > 100 µM | [16] > 100 µM | [17] > 100 µM | [18] > 100 µM

N#C[C@H](c1nc2ccccc2s1)c1nc2ccccc2nc1Cl
inactive: [19] > 100 µM | [1] 32.4 µM | [2] 14.2 µM | [3] > 100 µM | [4] 17.9 µM | [5] > 100 µM | [6] > 100 µM | [7] > 100 µM | [8] 18.6 µM | [9] 57.3 µM | [10] > 100 µM | [11] 17.2 µM | [12] 17.9 µM | [13] > 100 µM | [14] > 100 µM | [15] > 100 µM | [16] > 100 µM | [18] > 100 µM

COC(=O)C(/C(=N/NC(N)=O)C(=O)Nc1ccc(C)cc1)c1nc2ccc([N+](=O)[O-])cc2nc1O (stereo not given)
inactive: [19] > 100 µM | [1] > 100 µM | [3] > 10 µM | [4] > 100 µM | [5] > 100 µM | [6] > 100 µM | [7] > 100 µM | [8] 52.2 µM | [9] 27.2 µM | [10] > 100 µM | [11] > 100 µM | [12] > 100 µM | [13] > 100 µM | [14] > 100 µM | [16] > 100 µM | [17] > 100 µM | [18] > 100 µM

O=C(/C=C/c1cc(F)ccc1F)OCCc1ccccc1
inactive: [19] > 100 µM | [1] > 100 µM | [2] > 100 µM | [3] 38.3 µM | [4] > 100 µM | [5] 63 µM | [6] > 100 µM | [7] > 100 µM | [9] > 100 µM | [10] > 100 µM | [12] > 100 µM | [13] > 100 µM | [14] > 100 µM | [15] > 100 µM | [16] 40.2 µM | [17] > 100 µM | [18] 33 µM

Cc1nc(C(N)=S)sc1C(=O)CC(=O)C(=O)Nc1c(C(C)C)cccc1C(C)C
inactive: [19] 71 µM | [1] 35.8 µM | [2] 81.5 µM | [3] 44.7 µM | [4] 86.9 µM | [6] 39.2 µM | [7] 41.4 µM | [8] 40.5 µM | [9] 18 µM | [11] 18.3 µM | [12] > 100 µM | [13] 36 µM | [14] > 100 µM | [15] 45.8 µM | [16] 26.4 µM | [17] > 100 µM | [18] 36.6 µM

CN(C)CCNC(=O)c1cc([N+](=O)[O-])cc2ccc(-c3ccccc3)nc12
inactive: [19] 3.78 µM | [1] 7.64 µM | [2] 10.5 µM | [3] 3.1 µM | [4] 12.9 µM | [6] 6.59 µM | [7] 3.27 µM | [8] 3.8 µM | [9] 3.85 µM | [10] 2.17 µM | [11] 10.9 µM | [12] 6.4 µM | [13] 8.11 µM | [14] 9.33 µM | [15] 8.02 µM | [17] 22.2 µM | [18] 10.2 µM

Nc1ncnc2c1ncn2C1CC(OC2CCCCO2)C(CO)O1 (stereo not given)
inactive: [19] > 100 µM | [1] > 100 µM | [2] > 100 µM | [3] > 100 µM | [4] > 100 µM | [6] > 100 µM | [7] > 100 µM | [8] > 100 µM | [9] > 100 µM | [11] > 100 µM | [12] > 100 µM | [13] > 100 µM | [14] > 100 µM | [15] > 100 µM | [16] > 100 µM | [17] > 100 µM | [18] > 100 µM

O=C(CCCNc1nc(-c2ccccc2)cs1)c1cccs1
inactive: [1] > 100 µM | [2] > 100 µM | [4] > 100 µM | [5] > 100 µM | [6] > 100 µM | [7] > 100 µM | [8] > 100 µM | [9] > 100 µM | [10] > 100 µM | [11] > 100 µM | [12] > 100 µM | [13] > 100 µM | [14] > 100 µM | [15] > 100 µM | [16] > 100 µM | [17] > 100 µM | [18] > 100 µM

Cc1cccc(/C=C2\CCCCCC2=O)c1
inactive: [19] > 100 µM | [1] > 100 µM | [2] > 100 µM | [3] 28.8 µM | [20] > 100 µM | [4] > 100 µM | [5] > 100 µM | [6] > 100 µM | [7] > 100 µM | [8] 99.8 µM | [9] > 100 µM | [11] > 100 µM | [12] > 100 µM | [14] > 100 µM | [15] > 100 µM | [16] > 100 µM | [17] > 100 µM | [18] > 100 µM

NC(=O)CN1C=CCC(C(N)=O)=C1 [CARICOTAMIDE]
inactive: [19] > 100 µM | [1] > 100 µM | [2] > 100 µM | [3] > 100 µM | [20] > 100 µM | [4] > 100 µM | [6] > 100 µM | [7] > 100 µM | [8] > 100 µM | [9] > 100 µM | [10] > 100 µM | [11] > 100 µM | [12] > 100 µM | [13] > 100 µM | [15] > 100 µM | [18] > 100 µM

Reference: ChEMBL document CHEMBL1201862, “PubChem BioAssay data set” (2004)
